The target of assay [1] is T1, Toll-like receptor 7 (Homo sapiens, UniProt Q9NYK1).
T1 sequence (Q9NYK1 whole entry): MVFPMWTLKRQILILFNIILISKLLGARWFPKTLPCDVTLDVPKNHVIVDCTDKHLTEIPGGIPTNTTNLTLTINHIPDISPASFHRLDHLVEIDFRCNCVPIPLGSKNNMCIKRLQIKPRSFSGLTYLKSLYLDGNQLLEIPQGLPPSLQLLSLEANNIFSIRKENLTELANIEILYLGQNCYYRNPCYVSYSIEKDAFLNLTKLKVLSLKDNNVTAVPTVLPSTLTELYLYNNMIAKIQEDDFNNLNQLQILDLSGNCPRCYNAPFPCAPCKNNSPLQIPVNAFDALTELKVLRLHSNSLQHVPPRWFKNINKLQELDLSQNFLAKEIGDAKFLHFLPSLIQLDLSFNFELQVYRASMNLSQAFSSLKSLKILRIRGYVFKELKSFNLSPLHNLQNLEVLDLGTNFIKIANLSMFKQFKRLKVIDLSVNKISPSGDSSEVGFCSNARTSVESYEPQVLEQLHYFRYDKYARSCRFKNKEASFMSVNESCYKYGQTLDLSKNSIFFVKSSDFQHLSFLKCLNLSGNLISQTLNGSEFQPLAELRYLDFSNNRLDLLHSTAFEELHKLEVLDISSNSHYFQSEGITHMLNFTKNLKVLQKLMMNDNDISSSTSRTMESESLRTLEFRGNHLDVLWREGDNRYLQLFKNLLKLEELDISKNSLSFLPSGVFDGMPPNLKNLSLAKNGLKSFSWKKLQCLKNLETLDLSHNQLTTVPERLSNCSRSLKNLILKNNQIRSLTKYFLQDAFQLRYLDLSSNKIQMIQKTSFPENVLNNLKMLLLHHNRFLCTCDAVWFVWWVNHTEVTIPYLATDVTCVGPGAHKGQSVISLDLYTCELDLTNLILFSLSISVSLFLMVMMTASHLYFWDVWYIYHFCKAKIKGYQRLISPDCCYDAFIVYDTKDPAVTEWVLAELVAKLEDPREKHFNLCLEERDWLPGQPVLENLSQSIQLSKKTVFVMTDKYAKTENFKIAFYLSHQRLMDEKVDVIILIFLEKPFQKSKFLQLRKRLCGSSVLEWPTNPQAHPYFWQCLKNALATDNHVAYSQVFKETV
Description: Antagonist activity at human TLR7 expressed in HEK-Blue cells assessed as inhibition of CL264-induced NFkappaB activation by measuring reduction in SEAP level after overnight incubation using qunati-blue reagent by SEAP reporter gene-based spectrophotometric method

For assay [2], the target named is T2, Toll-like receptor 8 (Homo sapiens) (UniProt Q9NR97).
T2 sequence (whole entry): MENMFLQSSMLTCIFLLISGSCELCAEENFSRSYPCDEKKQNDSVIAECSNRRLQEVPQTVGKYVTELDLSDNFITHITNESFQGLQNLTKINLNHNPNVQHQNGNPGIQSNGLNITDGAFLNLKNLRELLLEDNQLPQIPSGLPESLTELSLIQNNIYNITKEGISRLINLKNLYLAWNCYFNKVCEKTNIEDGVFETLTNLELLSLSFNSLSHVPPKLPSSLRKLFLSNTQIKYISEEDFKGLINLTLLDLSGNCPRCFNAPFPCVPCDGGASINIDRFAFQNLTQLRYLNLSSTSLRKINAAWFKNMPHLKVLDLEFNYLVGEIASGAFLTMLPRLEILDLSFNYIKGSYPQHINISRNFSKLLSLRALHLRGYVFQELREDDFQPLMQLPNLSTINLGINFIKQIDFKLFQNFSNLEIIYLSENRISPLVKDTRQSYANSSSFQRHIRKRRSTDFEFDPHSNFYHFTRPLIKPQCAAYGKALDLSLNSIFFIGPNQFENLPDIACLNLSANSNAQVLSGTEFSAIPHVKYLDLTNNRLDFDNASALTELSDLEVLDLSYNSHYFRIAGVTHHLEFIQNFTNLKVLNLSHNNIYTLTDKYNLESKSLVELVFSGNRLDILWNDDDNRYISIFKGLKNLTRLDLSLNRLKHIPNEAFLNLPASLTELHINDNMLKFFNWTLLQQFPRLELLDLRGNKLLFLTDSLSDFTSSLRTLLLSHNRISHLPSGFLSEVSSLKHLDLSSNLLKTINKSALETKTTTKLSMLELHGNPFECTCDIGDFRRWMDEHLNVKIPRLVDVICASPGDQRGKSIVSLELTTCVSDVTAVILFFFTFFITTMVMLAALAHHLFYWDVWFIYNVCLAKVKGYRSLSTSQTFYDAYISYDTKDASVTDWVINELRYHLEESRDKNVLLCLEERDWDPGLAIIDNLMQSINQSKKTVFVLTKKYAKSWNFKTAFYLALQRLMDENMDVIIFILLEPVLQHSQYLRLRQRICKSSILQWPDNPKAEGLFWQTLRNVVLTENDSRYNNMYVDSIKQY
In words: Antagonist activity at human TLR8 expressed in HEK-Blue cells assessed as inhibition of CL075-induced NFkappaB activation by measuring reduction in SEAP level up to 50 uM after overnight incubation using qunati-blue reagent by SEAP reporter gene-based spectrophotometric method. In kind it is cell-based. On the technique in general: In a reporter assay the amount or activity of a reporter protein is the signal.

The target in assay [3] is T1, Toll-like receptor 7. The experiment in a line: Agonist activity at human TLR7 expressed in HEK-Blue cells assessed as induction of NFkappaB activation by measuring increase in SEAP level after overnight incubation using qunati-blue reagent by SEAP reporter gene-based spectrophotometric method. In kind it is cell-based.

The source made the active and inactive calls. No cut-off for these calls is given here.

Broadly, the IC50 is the concentration that inhibits the measured activity by half. A high value points to weaker potency. `CCN1CCN(CCCn2cnc3c(N4CCNCC4)ncnc32)CC1` gave an IC50 at Toll-like receptor 7 [1] of 39.3 µM. Moreover, in assay [2], the inhibition result was “inactive”. For `CCN1CCN(CCCn2cnc3c(N4CCOCC4)ncnc32)CC1` the same measures were 25 µM and “inactive”. In the case of `CCN1CCN(CCCn2c(O)nc3c(N)ncnc32)CC1`, the IC50 against Toll-like receptor 7 [1] stood at 43.1 µM. For the same compound, in assay [2], the inhibition result is “inactive”. `CCN(CCO)CCCC(C)Nc1ccnc2cc(Cl)ccc12` (configuration not stated) [HYDROXYCHLOROQUINE]: the IC50 against Toll-like receptor 7 [1] was found to be 8.6 µM. Regarding `CCN1CCN(CCCn2cnc3c(N4CCCCC4)ncnc32)CC1`, on Toll-like receptor 7 [1], half-maximal inhibition (IC50) required 23.9 µM. Also, the inhibition entry in assay [2] is “inactive”.

One may read the EC50 as the concentration that produces a half-maximal response. Consider `CCCCOc1nc(N)c2nc(O)n(CCCN3CCCCC3)c2n1`, for which the EC50 on Toll-like receptor 7 [3] was determined as 2.6 µM.

In turn, `CCN1CCN(c2ncnc3c2ncn3CCCN2CCCC2)CC1` displayed an IC50 at Toll-like receptor 7 [1] of 48.3 µM. Further, the inhibition entry in assay [2] is “inactive”.

On to `CCN1CCN(c2ncnc3c2ncn3CCCN2CCCCC2)CC1`, for which the half-maximal inhibitory concentration (IC50) against Toll-like receptor 7 [1] came to 15.8 µM. In addition, in assay [2], the inhibition entry was “inactive”. As for `CCN1CCN(c2ncnc3c2ncn3CCCN2CCNCC2)CC1`, the inhibition result in assay [2] was “inactive”. On Toll-like receptor 7 [1], `CCN1CCN(c2ncnc3c2ncn3CCCN2CCOCC2)CC1` showed an IC50 of 40 µM. Also, the inhibition result in assay [2] is “inactive”.

For the origin of these results see ChEMBL document CHEMBL4402605, “A Chemical Switch for Transforming a Purine Agonist for Toll-like Receptor 7 to a Clinically Relevant Antagonist” (J Med Chem, 2020).
